For assay [1], the system named is HO1. Nature of the assay: Daunorubicin-responsive HO1 upregulation, THP-1 (Western blot). It counts as cell-based, human. The note with it: THP-1, various concentrations of DNR, 24 h (FIG. 9a). On the procedure: (§1) THP-1 and U937 cells (4×10^5 cells mL^−1) were seeded and cultured in complete medium with various concentrations of DNR for 24 h. The cells were lysed using RIPA buffer and total protein was used for immunodetection by using anti-human HO1 and kactin antibodies (Cell Signaling Technology, Danvers, Mass., USA).
A general note: In western blotting, separated proteins are transferred to a membrane and probed.

Assay [2] relates to HO1. Nature of the assay: Daunorubicin-responsive HO1 upregulation, U937 (Western blot). The format is cell-based, human. The settings on record: U937, various concentrations of DNR, 24 h (FIG. 9a). As to the method:
as §1

As to `COc1cccc2c1C(=O)c1c(O)c3c(c(O)c1C2=O)C[C@@](O)(C(C)=O)C[C@@H]3O[C@H]1C[C@H](N)[C@H](O)[C@H](C)O1` [DNR, daunorubicin], the HO1 expression result in the assay with HO1 [1] and with HO1 [2] was “overexpressed” throughout.

The values are drawn from patent publication US20210379197A1, “DUAL-TARGETING LIPID-POLYMER HYBRID NANOPARTICLES” (IUCF-HYU (INDUSTRY-UNIVERSITY COOPERATION FOUNDATION …, priority 2020, published 2021).
